pKd: −log10 of the molar value.
Key:
Cx32 [1] = molecular target: T1, Cx32 (Homo sapiens, UniProt P08034); experiment: tryptophan fluorescence quenching; cryo-EM of Cx32 GJC at […] Å; dye uptake and gap-FRAP; assay type: binding; design: gene GJB1; purified Cx32 (gap junction channel)
Cx43 = molecular target: T2, Cx43 (Homo sapiens, UniProt P17302); experiment: cryo-EM of Cx43 GJC at […] Å; gap-FRAP in HEK293F cells; assay type: binding
T2 construct: gene GJA1; Cx43 gap junction channel

Cx32 [2] = molecular target: T1, Cx32; experiment: biochemical; design: gene GJB1

T1 sequence (P08034 whole entry): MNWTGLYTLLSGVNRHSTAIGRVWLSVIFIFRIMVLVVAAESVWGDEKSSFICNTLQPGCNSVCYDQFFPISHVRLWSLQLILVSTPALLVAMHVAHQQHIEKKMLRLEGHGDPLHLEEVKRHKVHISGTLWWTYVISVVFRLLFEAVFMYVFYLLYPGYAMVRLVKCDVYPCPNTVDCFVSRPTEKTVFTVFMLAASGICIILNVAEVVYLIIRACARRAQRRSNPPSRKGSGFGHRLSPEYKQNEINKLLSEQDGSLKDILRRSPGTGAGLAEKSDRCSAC
T2 sequence (P17302 2-382): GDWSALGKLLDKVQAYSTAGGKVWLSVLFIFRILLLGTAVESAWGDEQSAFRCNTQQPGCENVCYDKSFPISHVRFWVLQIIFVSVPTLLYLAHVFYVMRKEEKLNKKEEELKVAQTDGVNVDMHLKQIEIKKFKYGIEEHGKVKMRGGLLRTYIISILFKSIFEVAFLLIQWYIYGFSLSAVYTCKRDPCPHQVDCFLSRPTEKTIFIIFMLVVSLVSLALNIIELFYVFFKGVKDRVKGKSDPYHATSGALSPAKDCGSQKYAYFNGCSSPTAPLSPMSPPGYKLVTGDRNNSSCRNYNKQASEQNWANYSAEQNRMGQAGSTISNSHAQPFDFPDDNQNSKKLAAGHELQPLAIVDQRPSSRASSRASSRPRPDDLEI

Row | Compound | pKd (Cx32 [1]) | cryo-EM of Cx43 GJC at 3.7 Å; gap-FRAP in HEK293F cells (Cx43) | pKd (Cx32 [2])
1 | O[C@H](c1cc(C(F)(F)F)nc2c(C(F)(F)F)cccc12)[C@@H]1CCCCN1 (racemic) [MFQ, mefloquine] | 4.37 | a prominent additional density corresponding to MFQ was observed within the region corresponding to site M | –
2 | NCCOB(c1ccccc1)c1ccccc1 [2APB, 2-aminoethoxydiphenyl borate] | – | – | 5.98

Source: paper PMC11687724, “Mechanism of connexin channel inhibition by mefloquine and 2-aminoethoxydiphenyl borate” (PLOS ONE, 2024)
